Biological target: T1, GPR40 (Homo sapiens, UniProt O14842)
T1 construct: expressed in transfected cells
Assay: IP1 accumulation assay (Cisbio IP-One HTRF) in HEK293 cells stably expressing GPR40
Format: cell-based
Details: HEK293 cells stably expressing GPR40, 37° C. for 2 hours, % Effect relative to AMG-1638 positive control
Method: IP1 accumulation assay was used to evaluate the potency of compounds. HEK293 cells stably expressing GPR40 were cultured in 5% CO2 incubator (ThermoFisher) in maintenance media (Dulbecco's modified Eagle's medium with 4.5 g/L of glucose, 10% fetal bovine serum, 100 μg/mL Hygromycin, and Penicillin (100 U/mL)/Streptomycin (100 μg/mL)) till 100% confluency. Cells were harvested freshly, spun down at 300×g for 5 min, and resuspended in pre-warmed 1× stimulant buffer from Cisbio IP-One HTRF Detection kit (Cisbio). Cell density was adjusted to 2.0×10^6 cells/mL. DMSO was used as blank control and AMG-1638 (CAS #: 1142214-62-7) as positive control. Compounds were prepared at 10 mM in DMSO and 5 nL of 3× serially diluted compounds (10 concentrations) were added to each well of the 384-LDV assay plate (Corning) by using ECHO 550 (Labcyte). Five μL of cells in suspension were transferred into each well by using Multidrop Combi Reagent Dispenser (ThermoFisher). Assay plate was then sealed and incubated at 37° C. for 2 hours. IP-d2 reagent and anti-IP1 reagent were prepared following the manual (Cisbio). Five μL of IP1-d2 and then 5 μL of anti-IP1 antibody was added to each well sequentially. Assay plate was incubated at room temperature for 60 min and then read at 665 nm/615 nm on an Envision plate reader (PerkinElmer). The ratio of values obtained at 665 nm and 615 nm was used for calculation of IP1 accumulation: % Effect=(Ratiosample−Ratioblank)/(RatioAMG-1638−Ratioblank)×100. Dose curve was fitted and EC50 of each compound was calculated by using XLFit.

T1 sequence (O14842 whole entry): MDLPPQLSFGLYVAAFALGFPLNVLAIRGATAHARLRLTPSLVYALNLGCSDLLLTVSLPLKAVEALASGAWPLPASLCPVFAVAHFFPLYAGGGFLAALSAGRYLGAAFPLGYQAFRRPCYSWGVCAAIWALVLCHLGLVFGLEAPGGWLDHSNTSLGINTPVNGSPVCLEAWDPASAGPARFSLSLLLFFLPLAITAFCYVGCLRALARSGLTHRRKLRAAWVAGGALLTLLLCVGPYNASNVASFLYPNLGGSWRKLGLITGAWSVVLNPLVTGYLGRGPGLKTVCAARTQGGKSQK

EC50, 1 to 50 nM:
C#CC(C)(C)c1cc(COc2cccc([C@@H](CC(=O)O)C3CC3)c2)ccc1-c1cc(OC)ccc1F [Compound No. 217, (S)-3-cyclopropyl-3-(3-((2′-fluoro-5′-methoxy-2-(2-methylbut-3-yn-2-yl)-[1,1′-biphenyl]-4-yl)methoxy)phenyl)propanoic acid]
CCCCCCc1cn(Cc2ccc(OC(F)(F)F)c(CN3CCC([C@H]4CCc5ccc([C@H](C6CC6)[C@H](C)C(=O)O)cc5O4)CC3)c2)nn1 [compound 195, (2S,3R)-3-cyclopropyl-3-((R)-2-(1-(5-((4-hexyl-1H-1,2,3-triazol-1-yl)methyl)-2-(trifluoro-methoxy)benzyl)piperidin-4-yl)chroman-7-yl)-2-methylpropanoic acid]
C[C@H](C(=O)O)[C@H](c1ccc2c(c1)O[C@@H](C1CCN(Cc3cc(CN=[N+]=[N-])ccc3OC(F)(F)F)CC1)CC2)C1CC1 [Compound 201]
COc1ccc(F)c(-c2ccc(COc3cccc([C@@H](CC(=O)O)C4CC4)c3)cc2C(OC)C(C)(C)CN=[N+]=[N-])c1 (stereo partly drawn) [Compound No. 236, (3S)-3-(3-((2-(3-azido-1-methoxy-2,2-dimethylpropyl)-2′-fluoro-5′-methoxy-[1,1′-biphenyl]-4-yl)methoxy)phenyl)-3-cyclopropylpropanoic acid]
C[C@H](C(=O)O)[C@H](c1ccc2c(c1)O[C@H](C1CCN(Cc3cc(N=[N+]=[N-])ccc3OC(F)(F)F)CC1)CC2)C1CC1 [compound 194, (2S,3R)-3-((S)-2-(1-(5-azido-2-(trifluoromethoxy)benzyl)piperidin-4-yl)chroman-7-yl)-3-cyclopropyl-2-methylpropanoic acid]
COc1ccc(F)c(-c2ccc(COc3cccc([C@@H](CC(=O)O)C4CC4)c3)cc2C(OCCCCN=[N+]=[N-])C(C)(C)C)c1 (stereo partly drawn) [Compound No. 232, (3S)-3-(3-((2-(1-(4-azidobutoxy)-2,2-dimethylpropyl)-2′-fluoro-5′-methoxy-[1,1′-biphenyl]-4-yl)methoxy)phenyl)-3-cyclopropylpropanoic acid]

EC50, 250 to 1000 nM:
CCCCCCn1cc(COCC(C)(C)c2cc(COc3cccc([C@@H](CC(=O)O)C4CC4)c3)ccc2-c2cc(OC)ccc2F)nn1 [Compound No. 229, (S)-3-cyclopropyl-3-(3-((2′-fluoro-2-(1-((1-hexyl-1H-1,2,3-triazol-4-yl)methoxy)-2-methylpropan-2-yl)-5′-methoxy-[1,1′-biphenyl]-4-yl)methoxy)phenyl) propanoic acid]
COc1ccc(F)c(-c2ccc(COc3cccc([C@@H](CC(=O)O)C4CC4)c3)cc2C(C)(C)COCc2cn(CCCCCCCCCCCCCCCCCC(=O)O)nn2)c1 [Compound No. 230]

EC50, 1000 to 5000 nM:
COc1ccc(F)c(-c2ccc(COc3cccc([C@@H](CC(=O)O)C4CC4)c3)cc2C(C)(C)n2cc(CCCCCCCCCCCCCCCCCC(=O)O)nn2)c1 [Compound No. 220, (S)-18-(1-(2-(4-((3-(2-carboxy-1-cyclopropylethyl)phenoxy)methyl)-2′-fluoro-5′-methoxy-[1,1′-biphenyl]-2-yl)propan-2-yl)-1H-1,2,3-triazol-4-yl)octadecanoic acid]
CCCCCCc1cn(Cc2cc3ccc(OC)c(CN4CCC([C@H]5CCc6ccc([C@H](C7CC7)[C@H](C)C(=O)O)cc6O5)CC4)c3o2)nn1 [compound 209, (2S,3R)-3-cyclopropyl-3-((R)-2-(1-((2-((4-hexyl-1H-1,2,3-triazol-1-yl)methyl)-6-methoxybenzofuran-7-yl)methyl)piperidin-4-yl)chroman-7-yl)-2-methylpropanoic acid]
CCCCCCn1cc(COc2cc(COc3cccc([C@H](CC)CC(=O)O)c3)ccc2-c2cc(OC)ccc2F)nn1 [Compound No. 213]

EC50, 50 to 250 nM:
CCCCCCc1cn(CC(C)(C)c2cc(COc3cccc([C@@H](CC(=O)O)C4CC4)c3)ccc2-c2cc(OC)ccc2F)nn1 [Compound No. 225, (S)-3-cyclopropyl-3-(3-{2′-fluoro-2-[2-(4-hexyl-[1,2,3]triazol-1-yl)-1,1-dimethyl-ethyl]-5′-methoxy-biphenyl-4-ylmethoxy}-phenyl)-propionic acid]
CCCCCCn1cc(-c2ccc(OC(F)(F)F)c(CN3CCC([C@H]4CCc5ccc([C@H](C6CC6)[C@H](C)C(=O)O)cc5O4)CC3)c2)nn1 [compound 187, (2S,3R)-3-cyclopropyl-3-((R)-2-(1-(5-(1-hexyl-1H-1,2,3-triazol-4-yl)-2-(trifluoro-methoxy)benzyl)piperidin-4-yl)chroman-7-yl)-2-methylpropanoic acid]

EC50, ≥ 5000 nM:
COC(=O)CCCCCCCCCCCCCCCCCn1cc(COCC(C)(C)c2cc(COc3cccc([C@@H](CC(=O)O)C4CC4)c3)ccc2-c2cc(OC)ccc2F)nn1 [Compound No. 231, (S)-3-cyclopropyl-3-(3-((2′-fluoro-5′-methoxy-2-(1-((1-(18-methoxy-18-oxooctadecyl)-1H-1,2,3-triazol-4-yl)methoxy)-2-methylpropan-2-yl)-[1,1′-biphenyl]-4-yl)methoxy)phenyl)propanoic acid]
COc1ccc2cc(CN=[N+]=[N-])oc2c1CN1CCC([C@H]2CCc3ccc([C@H](C4CC4)[C@H](C)C(=O)O)cc3O2)CC1 [compound 207, (2S,3R)-3-((R)-2-(1-((2-(azidomethyl)-6-methoxybenzofuran-7-yl)methyl)-piperidin-4-yl)chroman-7-yl)-3-cyclopropyl-2-methylpropanoic acid]
